Starred links: 1 amine or outer side, 2 acyl side, 3 side chain; linkers in the order of their positions; H or OH if unused. Positions of bridges follow the written chain, without caps; N, C: chain ends. Non-standard residues stand in square brackets, D forms with d. Residues, ends and D or L forms follow the SMILES beside them. *: point of attachment. DAMPA = CN(Cc1cnc2nc(N)nc(N)c2n1)c1ccc(C(=O)*)cc1; γGlu = O=C(O)[C@H](CCC(=O)[*:2])N[*:1]; Pen = CC(C)(S)[C@H](N)C(=O)O
Columns and labels:
[1] = Binding affinity to Dengue virus NS2B-NS3 protease assessed as inhibition constant
[2] = biological target: Kappa-type opioid receptor (Mus musculus, UniProt P33534); assay: Displacement of [3H]DPN from mouse KOR stably expressed in HEK293T cell membrane assessed as inhibition constant by radioligand binding assay; format: cell membranes
[3] = Stability of the compound assessed as half life at pH 6; format: physicochemical; details: buffer
[4] = Stability in rat plasma assessed as half life measured upto 120 mins; format: ADME, cell-free
[5] = Stability in rat heart assessed as half life measured upto 120 mins; format: ADME, tissue-based

Chain of Kappa-type opioid receptor (P33534 whole entry): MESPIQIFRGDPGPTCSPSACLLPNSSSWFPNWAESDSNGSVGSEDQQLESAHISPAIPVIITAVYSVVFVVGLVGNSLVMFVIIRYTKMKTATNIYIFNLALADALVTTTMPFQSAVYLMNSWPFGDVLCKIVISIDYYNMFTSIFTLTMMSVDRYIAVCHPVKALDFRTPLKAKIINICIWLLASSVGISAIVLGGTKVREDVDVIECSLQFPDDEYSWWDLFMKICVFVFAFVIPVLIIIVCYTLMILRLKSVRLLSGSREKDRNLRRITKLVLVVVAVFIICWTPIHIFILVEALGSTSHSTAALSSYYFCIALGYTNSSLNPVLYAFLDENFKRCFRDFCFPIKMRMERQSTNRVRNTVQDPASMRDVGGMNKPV

## CCCC[C@@H](NC(=O)[C@H](CCCCN)NC(=O)[C@H](CCCNC(=N)N)NC(=O)c1ccc(/C=C(\C#N)C(=O)NC2CC2)cc1)C(N)=O
[1]
  Ki: 4.9 µM

## C[C@H](O)[C@@H]1NC(=O)[C@H](Cc2ccc(O)cc2)NC(=O)[C@@H](C)NC(=O)[C@@H](Cc2ccc(O)cc2)NC(=O)CSC[C@@H](C(=O)N[C@@H](C(=O)N[C@H](Cc2ccccc2)C(=O)N[C@@H]2CCC3C4Cc5ccc(O)c6c5C3(CCN4C)[C@H]2O6)[C@@H](C)O)NC(=O)[C@H]([C@H](C)O)NC1=O (stereo partly specified)
[2]
  Ki: 0.072 µM

## C=CCN1CCC23c4c5ccc(O)c4O[C@H]2[C@H](NC(=O)[C@@H](Cc2ccccc2)NC(=O)[C@H](NC(=O)[C@@H]2CSCC(=O)N[C@H](Cc4ccc(O)cc4)C(=O)N[C@H](C)C(=O)N[C@@H](Cc4ccc(O)cc4)C(=O)N[C@@H]([C@H](C)O)C(=O)N[C@@H]([C@H](C)O)C(=O)N2)[C@@H](C)O)CCC3C1C5 (stereo partly specified)
[2]
  Ki: 0.0039 µM

## CC(C)C[C@@H]1NC(=O)[C@H](C(C)C)NC(=O)[C@H](CO)NC(=O)CNC(=O)CNC(=O)[C@H](CCCNC(=N)N)NC(=O)[C@@H]2CCCN2C(=O)[C@@H](NC(=O)CC[C@H](NC(=O)c2ccc(N(C)Cc3cnc4nc(N)nc(N)c4n3)cc2)C(=O)O)C(C)(C)SSC[C@@H](C(=O)O)NC(=O)CNC(=O)[C@H]([C@@H](C)O)NC(=O)[C@H](C(C)C)NC1=O ({DAMPA-γGlu}-[Pen]PRGGSVLVTGC-OH; disulfide 1-12)
[3]
  half-life: 770 min
[4]
  half-life: 43.8 min
[5]
  half-life: 38.1 min

From ChEMBL document CHEMBL5528033, “Peptide-Drug Conjugates: An Emerging Direction for the Next Generation of Peptide Therapeutics” (J Med Chem, 2024)
